Test results as given in the supplement of paper PMC10307832.

What was measured:
Experiment in all cases: relative viability (nuclei count vs DMSO), 5 days (fraction); higher = more cells survive
CX-5461 + OSI-027 = compound: Cc1cnc(CNC(=O)c2c(=O)c3ccc(N4CCCN(C)CC4)nc3n3c2sc2ccccc23)cn1 [CX-5461] + COc1cccc2cc(-c3nc([C@H]4CC[C@H](C(=O)O)CC4)n4ncnc(N)c34)[nH]c12 [OSI-027] (partner 0.5 µM)
Method in brief: (§1)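 Medians of duplicate plates are given as relative viability. That measure is the nuclei count in treated wells divided by the count in vehicle wells. Counts were taken on 4× images of lung cancer cell lines in 1536-well plates, 5 days after pin-tool dosing the day after seeding with one drug alone or a fixed anchor-drug dose plus five library-drug doses (not always all listed) in √10 steps.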

IMD-0354 + Lapatinib = compound: O=C(Nc1cc(C(F)(F)F)cc(C(F)(F)F)c1)c1cc(Cl)ccc1O [IMD-0354] + CS(=O)(=O)CCNCc1ccc(-c2ccc3ncnc(Nc4ccc(OCc5cccc(F)c5)c(Cl)c4)c3c2)o1 [Lapatinib] (partner 2 µM)
Method in brief: as §1

IMD-0354 + Dasatinib = compound: O=C(Nc1cc(C(F)(F)F)cc(C(F)(F)F)c1)c1cc(Cl)ccc1O [IMD-0354] + Cc1nc(Nc2ncc(C(=O)Nc3c(C)cccc3Cl)s2)cc(N2CCN(CCO)CC2)n1 [Dasatinib] (partner 0.075 µM)
Method in brief: as §1

CX-5461 + Pictilisib = compound: Cc1cnc(CNC(=O)c2c(=O)c3ccc(N4CCCN(C)CC4)nc3n3c2sc2ccccc23)cn1 [CX-5461] + CS(=O)(=O)N1CCN(Cc2cc3nc(-c4cccc5[nH]ncc45)nc(N4CCOCC4)c3s2)CC1 [Pictilisib] (partner 1 µM)
Method in brief: as §1

Cell Line	relative viability (CX-5461 + OSI-027; first compound 0.01 µM)	relative viability (CX-5461 + OSI-027; first compound 0.03162 µM)	relative viability (CX-5461 + OSI-027; first compound 0.1 µM)	relative viability (CX-5461 + OSI-027; first compound 0.3162 µM)	relative viability (CX-5461 + OSI-027; first compound 1 µM)	relative viability (IMD-0354 + Lapatinib; first compound 0.04 µM)	relative viability (IMD-0354 + Lapatinib; first compound 0.1265 µM)	relative viability (IMD-0354 + Lapatinib; first compound 0.4 µM)	relative viability (IMD-0354 + Lapatinib; first compound 1.265 µM)	relative viability (IMD-0354 + Lapatinib; first compound 4 µM)	relative viability (IMD-0354 + Dasatinib; first compound 0.04 µM)	relative viability (IMD-0354 + Dasatinib; first compound 0.1265 µM)	relative viability (IMD-0354 + Dasatinib; first compound 0.4 µM)	relative viability (IMD-0354 + Dasatinib; first compound 1.265 µM)	relative viability (IMD-0354 + Dasatinib; first compound 4 µM)	relative viability (CX-5461 + Pictilisib; first compound 0.01 µM)	relative viability (CX-5461 + Pictilisib; first compound 0.03162 µM)	relative viability (CX-5461 + Pictilisib; first compound 0.1 µM)	relative viability (CX-5461 + Pictilisib; first compound 0.3162 µM)	relative viability (CX-5461 + Pictilisib; first compound 1 µM)
LU99A	0.338	0.295	0.333	0.257	0.258	0.708	0.952	0.604	0.247	0.165	0.573	0.648	0.445	0.113	0.19	0.296	0.312	0.271	0.289	0.173
ABC-1	0.465	0.562	0.251	–	0.362	1.31	1.15	–	1.17	0.612	0.67	0.673	0.279	0.165	0.228	0.792	1	–	0.289	0.573
NCI-H358	0.621	0.939	0.69	0.592	0.194	0.541	0.441	0.413	0.273	0.192	0.148	0.193	0.139	0.103	0.0831	0.29	0.323	0.249	0.19	0.316
NCI-H2347	0.326	0.395	0.411	0.553	0.395	0.863	0.972	0.632	0.201	0.434	0.321	0.308	0.278	0.162	0.229	0.769	0.697	0.49	0.562	0.665
NCI-H1993	0.562	0.591	0.625	0.511	0.448	0.79	0.788	0.754	0.497	0.562	0.562	0.652	0.448	0.543	0.51	0.778	0.83	0.891	0.84	0.819
NCI-H322M	0.534	0.552	0.578	0.389	0.393	0.651	0.584	0.57	0.802	0.342	0.25	0.277	0.248	0.222	0.274	0.578	0.535	0.575	–	0.464
NCI-H838	0.413	0.384	0.404	–	0.272	1.14	0.855	0.399	0.305	0.261	0.239	0.321	0.256	0.239	0.214	0.457	0.473	0.5	0.474	0.325
HARA	0.616	0.572	0.423	–	0.319	0.792	0.752	0.432	0.11	0.198	0.324	0.253	0.185	0.103	0.0678	0.634	0.559	0.37	0.497	0.267
NCI-H2087	0.61	0.499	0.474	0.369	0.407	0.872	0.991	0.419	0.137	0.178	0.828	0.896	0.312	0.122	0.151	0.887	1.02	1.07	0.282	0.716
NCI-H1437	0.912	0.869	–	0.841	0.662	0.86	0.69	0.317	0.122	0.194	0.528	0.381	0.255	0.0882	0.144	0.381	0.471	–	0.408	0.382
NCI-H1792	0.657	0.786	0.763	0.759	0.659	0.827	0.967	0.833	0.479	0.299	0.906	0.69	0.545	0.406	0.416	0.294	0.296	0.277	0.276	0.281
NCI-H650	0.578	0.558	0.483	0.536	0.352	1.11	0.864	0.614	0.451	0.22	0.514	0.484	0.404	0.264	0.197	0.858	1.05	0.889	0.664	0.731
COR-L23	0.802	0.808	0.7	0.835	0.472	1.09	0.831	0.439	0.117	0.172	0.426	0.475	0.37	0.0763	0.201	0.811	1.15	0.656	0.65	0.443
COR-L 105	0.767	0.665	0.532	0.391	0.445	0.332	0.329	0.339	0.243	0.253	0.401	0.316	0.283	0.246	0.197	0.425	0.461	0.352	0.281	0.333
NCI-H1395	0.639	0.625	0.63	0.475	0.515	1.11	1.28	0.821	0.292	0.364	0.432	0.47	0.385	0.372	0.291	0.568	0.576	0.914	0.447	0.395
201T	0.911	0.669	0.726	0.502	0.552	1.07	1.08	0.827	1.04	0.333	0.625	0.586	0.479	0.283	0.346	0.713	0.748	0.753	0.708	0.721
